Measured values published in ChEMBL document CHEMBL3867433, “Synthesis and antimicrobial activity of styryl/pyrrolyl/pyrazolyl sulfonylmethyl-1,3,4-oxadiazolyl amines and styryl/pyrrolyl/pyrazolyl sulfonylmethyl-1,3,4-thiadiazolyl amines” (2016).

Legend:
Format in all cases: functional
[1] = tested on: Aspergillus niger; experiment: Antifungal activity against Aspergillus niger assessed as inhibition of spore germination at 50 ug/well after 48 hrs by agar well diffusion method; conditions: read-out: DIZ
[2] = tested on: Aspergillus niger; experiment: Antifungal activity against Aspergillus niger assessed as inhibition of spore germination at 25 ug/well after 48 hrs by agar well diffusion method; conditions: read-out: DIZ
[3] = Antifungal activity against Penicillium chrysogenum assessed as inhibition of spore germination at 100 ug/well after 48 hrs by agar well diffusion method
[4] = tested on: Staphylococcus aureus; experiment: Antibacterial activity against Staphylococcus aureus at 100 ug/well after 24 hrs by agar well diffusion method; conditions: read-out: DIZ
[5] = tested on: Pseudomonas aeruginosa; experiment: Antibacterial activity against Pseudomonas aeruginosa at 12.5 ug/well after 24 hrs by agar well diffusion method; conditions: read-out: DIZ
[6] = tested on: Pseudomonas aeruginosa; experiment: Antibacterial activity against Pseudomonas aeruginosa at 25 ug/well after 24 hrs by agar well diffusion method; conditions: read-out: DIZ
[7] = tested on: Klebsiella pneumoniae; experiment: Antibacterial activity against Klebsiella pneumoniae at 50 ug/well after 24 hrs by agar well diffusion method; conditions: read-out: DIZ
[8] = Antifungal activity against Penicillium chrysogenum assessed as inhibition of spore germination at 50 ug/well after 48 hrs by agar well diffusion method
[9] = tested on: Klebsiella pneumoniae; experiment: Antibacterial activity against Klebsiella pneumoniae at 25 ug/well after 24 hrs by agar well diffusion method; conditions: read-out: DIZ
[10] = tested on: Staphylococcus aureus; experiment: Antibacterial activity against Staphylococcus aureus at 50 ug/well after 24 hrs by agar well diffusion method; conditions: read-out: DIZ
[11] = Antifungal activity against Penicillium chrysogenum assessed as inhibition of spore germination at 12.5 ug/well after 48 hrs by agar well diffusion method
[12] = tested on: Bacillus subtilis; experiment: Antibacterial activity against Bacillus subtilis at 12.5 ug/well after 24 hrs by agar well diffusion method; conditions: read-out: DIZ
[13] = tested on: Pseudomonas aeruginosa; experiment: Antibacterial activity against Pseudomonas aeruginosa at 100 ug/well after 24 hrs by agar well diffusion method; conditions: read-out: DIZ
[14] = tested on: Bacillus subtilis; experiment: Antibacterial activity against Bacillus subtilis at 50 ug/well after 24 hrs by agar well diffusion method; conditions: read-out: DIZ
[15] = tested on: Staphylococcus aureus; experiment: Antibacterial activity against Staphylococcus aureus at 12.5 ug/well after 24 hrs by agar well diffusion method; conditions: read-out: DIZ
[16] = tested on: Staphylococcus aureus; experiment: Antibacterial activity against Staphylococcus aureus at 25 ug/well after 24 hrs by agar well diffusion method; conditions: read-out: DIZ
[17] = tested on: Klebsiella pneumoniae; experiment: Antibacterial activity against Klebsiella pneumoniae at 100 ug/well after 24 hrs by agar well diffusion method; conditions: read-out: DIZ
[18] = tested on: Pseudomonas aeruginosa; experiment: Antibacterial activity against Pseudomonas aeruginosa at 50 ug/well after 24 hrs by agar well diffusion method; conditions: read-out: DIZ
[19] = tested on: Aspergillus niger; experiment: Antifungal activity against Aspergillus niger assessed as inhibition of spore germination at 100 ug/well after 48 hrs by agar well diffusion method; conditions: read-out: DIZ
[20] = tested on: Klebsiella pneumoniae; experiment: Antibacterial activity against Klebsiella pneumoniae at 12.5 ug/well after 24 hrs by agar well diffusion method; conditions: read-out: DIZ
[21] = tested on: Bacillus subtilis; experiment: Antibacterial activity against Bacillus subtilis at 25 ug/well after 24 hrs by agar well diffusion method; conditions: read-out: DIZ
[22] = Antifungal activity against Penicillium chrysogenum assessed as inhibition of spore germination at 25 ug/well after 48 hrs by agar well diffusion method
[23] = tested on: Bacillus subtilis; experiment: Antibacterial activity against Bacillus subtilis at 100 ug/well after 24 hrs by agar well diffusion method; conditions: read-out: DIZ
[24] = tested on: Aspergillus niger; experiment: Antifungal activity against Aspergillus niger assessed as inhibition of spore germination at 12.5 ug/well after 48 hrs by agar well diffusion method; conditions: read-out: DIZ

Structure (SMILES)	zone of inhibition at 50 µg/disc [1]	zone of inhibition at 25 µg/disc [2]	inhibition zone (IZ) [3]	zone of inhibition at 100 µg/disc [4]	zone of inhibition at 12.5 µg/disc [5]	zone of inhibition at 25 µg/disc [6]	zone of inhibition at 50 µg/disc [7]	inhibition zone (IZ) [8]	zone of inhibition at 25 µg/disc [9]	zone of inhibition at 50 µg/disc [10]	inhibition zone (IZ) [11]	zone of inhibition at 12.5 µg/disc [12]	zone of inhibition at 100 µg/disc [13]	zone of inhibition at 50 µg/disc [14]	zone of inhibition at 100 µg/disc [17]	zone of inhibition at 50 µg/disc [18]	zone of inhibition at 100 µg/disc [19]	zone of inhibition at 12.5 µg/disc [20]	inhibition zone (IZ) [22]	zone of inhibition at 100 µg/disc [23]	other results
Nc1nnc(CS(=O)(=O)c2n[nH]cc2-c2ccc(Cl)cc2)o1	11 mm	9 mm	17 mm	15 mm	12 mm	14 mm	15 mm	15 mm	13 mm	12 mm	12 mm	8 mm	18 mm	12 mm	17 mm	16 mm	13 mm	11 mm	13 mm	13 mm	zone of inhibition at 12.5 µg/disc [15]: 8 mm; zone of inhibition at 25 µg/disc [16]: 10 mm; zone of inhibition at 25 µg/disc [21]: 9 mm
Cc1ccc(-c2c[nH]cc2S(=O)(=O)Cc2nnc(N)o2)cc1	7 mm	–	14 mm	10 mm	–	–	–	12 mm	–	–	8 mm	–	11 mm	–	12 mm	10 mm	9 mm	–	10 mm	10 mm	–
Cc1ccc(C2CNN=C2S(=O)(=O)Cc2nnc(N)s2)cc1 (configuration not stated)	4 mm	–	11 mm	–	–	–	–	–	–	–	–	–	–	–	–	–	8 mm	–	–	–	–
Nc1nnc(CS(=O)(=O)c2c[nH]cc2-c2ccccc2)s1	16 mm	14 mm	31 mm	24 mm	19 mm	21 mm	29 mm	29 mm	27 mm	22 mm	25 mm	20 mm	25 mm	22 mm	31 mm	23 mm	18 mm	26 mm	27 mm	24 mm	zone of inhibition at 12.5 µg/disc [24]: 12 mm; zone of inhibition at 12.5 µg/disc [15]: 17 mm; zone of inhibition at 25 µg/disc [16]: 19 mm; zone of inhibition at 25 µg/disc [21]: 21 mm
Nc1nnc(CS(=O)(=O)C2=NNCC2c2ccccc2)s1 (configuration not stated)	7 mm	–	12 mm	–	–	–	–	–	–	–	–	–	–	–	–	–	9 mm	–	–	–	–
Cc1ccc(-c2c[nH]nc2S(=O)(=O)Cc2nnc(N)o2)cc1	10 mm	8 mm	14 mm	12 mm	9 mm	10 mm	12 mm	11 mm	–	–	–	6 mm	14 mm	9 mm	14 mm	12 mm	10 mm	–	–	11 mm	zone of inhibition at 25 µg/disc [21]: 7 mm
Nc1nnc(CS(=O)(=O)c2n[nH]cc2-c2ccccc2)o1	11 mm	9 mm	16 mm	14 mm	11 mm	13 mm	14 mm	14 mm	12 mm	10 mm	–	7 mm	17 mm	11 mm	16 mm	15 mm	13 mm	10 mm	12 mm	15 mm	zone of inhibition at 25 µg/disc [21]: 9 mm
Nc1nnc(CS(=O)(=O)C2=NNCC2c2ccc(Cl)cc2)s1 (configuration not stated)	10 mm	–	13 mm	–	–	–	–	10 mm	–	–	–	–	–	–	–	–	11 mm	–	–	–	–
Cc1ccc(/C=C\S(=O)(=O)Cc2nnc(N)o2)cc1	11 mm	10 mm	16 mm	14 mm	12 mm	14 mm	15 mm	14 mm	13 mm	12 mm	10 mm	8 mm	18 mm	11 mm	17 mm	16 mm	13 mm	11 mm	12 mm	14 mm	zone of inhibition at 12.5 µg/disc [24]: 8 mm; zone of inhibition at 25 µg/disc [21]: 9 mm
Nc1nnc(CS(=O)(=O)c2c[nH]cc2-c2ccccc2)o1	10 mm	8 mm	16 mm	11 mm	8 mm	10 mm	11 mm	14 mm	–	–	11 mm	–	14 mm	–	13 mm	12 mm	12 mm	–	12 mm	12 mm	–
Nc1nnc(CS(=O)(=O)c2c[nH]cc2-c2ccc(Cl)cc2)o1	9 mm	10 mm	18 mm	12 mm	9 mm	11 mm	12 mm	16 mm	10 mm	9 mm	12 mm	–	15 mm	11 mm	14 mm	13 mm	14 mm	8 mm	14 mm	13 mm	zone of inhibition at 12.5 µg/disc [15]: 7 mm; zone of inhibition at 25 µg/disc [16]: 8 mm
